Source: patent US20120035320A1, “POLYACRIDINE NUCLEIC ACID DELIVERY PEPTIDE COMPLEXES” (University of Iowa Research Foundation, priority 2010, published 2012)
“Also recorded” adds a separate entry of the source. Read-outs that look alike come from different tables or passages of the source. No end group written: not given here. *: point of attachment. 6‑(9-acridinylamino)hexanoyl = O=C(CCCCCNc1c2ccccc2nc2ccccc12)*; Acr = acridine on the lysine ε-amine; PEG = not defined here

Key:
[1] = tested on: Erythrocytes; experiment: RBC hemolysis assay; assay type: cell-based, mice; details: for hemolytic activity when combined with pGL3: pH 7.4, peptide DNA polyplex 1.5 nmols and 7.5 μg pGL3
Procedure: Whole blood was obtained from male ICR mice by heart puncture with heparinized 22 G needles and collected in conical tubes containing 10 ml of 0.15 M PBS (pH 7.4) prewarmed to 37° C. Erythrocytes were immediately separated from plasma by centrifugation at 2000 rpm for 2 min, washed three times with 10 ml of PBS, and then diluted to 1.5×10^8 cells/ml. Peptides were prepared at 15 μM and serially diluted to 10-0.01 μM, after which 100 μl was pipetted in triplicate into a MultiScreenHTS BV 96 well plate. Erythrocytes (50 μl, 7.5×10^6 cells) were added to the peptides and incubated at 37° C. for 1 h followed by filtration on a Multiscreen vacuum manifold (Millipore Corporation, Billerica, Mass.). The filtrate was measured for Abs410nm on a Biotech plate reader (Biotech Instruments Incorporated., Winooski, Vt.) and compared to the 100% hemolysis caused by replacing PBS with water. Peptide DNA polyplexes (1.5 nmols and 7.5 μg pGL3) were also assayed for hemolysis as described above.

[2] = tested on: pGL3; experiment: thiazole orange fluorophore exclusion assay of polyacridine-melittin peptides; assay type: binding; details: pGL3, 0.1 μM thiazole orange
Procedure: The relative binding affinity of peptides for DNA was determined by a fluorophore exclusion assay (Rich, D. H., Gesellchen, P. D., Tong, A., Cheung, A., and Buckner, C. K. (1975) Alkylating derivatives of amino acids and peptides. Synthesis of N-maleoylamino acids, [1-(N-maleoylglycyl)cysteinyl]oxytocin, and [1-(N-maleoyl-11-aminoundecanoyl)cysteinyl]oxytocin. Effects on vasopressin-stimulated water loss from isolated toad bladder. J. Med. Chem. 18, 1004-1010). pGL3 (200 μl of 4 μg/ml in 5 mM Hepes pH 7.5 containing 0.1 μM thiazole orange) was combined with 0, 0.05, 0.1, 0.25, 0.35, 0.5, 1, and 2 nmols of peptide in 300 μl of Hepes and allowed to bind at RT for 30 min. Thiazole orange fluorescence was measured using an LS50B fluorometer (Perkin-Elmer, U.K.) by exciting at 498 nm while monitoring emission at 546 nm with the slit widths set at 10 nm. A fluorescence blank of thiazole orange in the absence of DNA was subtracted from all values before data analysis. The data is presented as nmol of peptide per μg of DNA versus the percent fluorescence intensity±the standard deviation determined by three independent measurements.

[3] = tested on: pGL3; experiment: gel band shift assay of acridine PEGs and polyacridine PEG-peptides; assay type: binding; details: constant stoichiometry of 1 nmol per μg of DNA
Procedure: The samples were loaded onto a 1% agarose gel (50 ml) and electrophoresed in TAE buffer at 80 V for 90 min. […] The samples were applied to a 1% agarose gel and electrophoresed as described above.

[4] = tested on: liver; experiment: hydrodynamic stimulation and bioluminescence imaging of luciferase expression; assay type: in vivo, mice; details: tail vein 1 μg pGL3 in complex with 0.5 nmol peptide; HD stimulation 30 min after DNA
Procedure: pGL3 (1 μg) was prepared in a volume of normal saline corresponding to 9 wt/vol % of the mouse's body weight (1.8-2.25 ml based on 20-25 g mice). The DNA dose was administered by tail vein to 4-5 mice in 5 sec according to a published procedure (Liu F, Song Y, Liu D. Hydrodynamics-based transfection in animals by systemic administration of plasmid DNA. Gene Ther 1999; 6: 1258-1266; Zhang G, Budker V, Wolff J A. High levels of foreign gene expression in hepatocytes after tail vein injections of naked plasmid DNA. Human Gene Therapy 1999; 10: 1735-1737). Mice (4-5) were also dosed tail vein with 1 μg of PEGylated polyacridine polyplex in 50 μl of HBM (5 mM Hepes, 0.27 M mannitol, pH 7.4). At times ranging from 5-120 min, a stimulatory hydrodynamic dose of normal saline (9 wt/vol % of the body weight) was administered over 5 sec. At 24 hrs post-DNA dose, mice were anesthetized by 3% isofluorane, then administered an i.p. dose of 80 μl (2.4 mg) of D-luciferin (30 μg/μl in phosphate-buffered saline). At 5 min following the D-luciferin dose, mice were imaged for bioluminescence (BLI) on an IVIS Imaging 200 Series (Xenogen). BLI was performed in a light-tight chamber on a temperature-controlled, adjustable stage while isofluorane was administered by a gas manifold at a flow rate of 3%. Images were acquired at a ‘medium’ binning level and a 20 cm field of view. Acquisition times were varied (1 sec^−1 min) depending on the intensity of the luminescence. The Xenogen system reported bioluminescence as photons/sec/cm^2/seradian in a 2.86 cm diameter region of interest covering the liver. The integration area was transformed to pmols of luciferase in the liver using a previously reported standard curve (Rettig G et al. Quantitative Bioluminscence Imaging of Transgene Expression In Vivo. Analytical Biochemistry 2006; 335: 90-94). The results were determined to be statistically significant (p≦0.05) based on a two-tailed unpaired t-test.

[5] = particle size and zeta potential of polyacridine PEG-peptide DNA open polyplexes; assay type: physicochemical; details: for apparent particle diameter: QELS, 0.2 nmols per μg of DNA or higher
Procedure: Polyacridine PEG-peptide DNA polyplexes were formed by combining 10 μg of pGL3 (in 500 μl of 5 mM Hepes pH 7.4) with an equal volume containing either 1, 2, 4, 8, 12, 16, or 20 nmol of polyacridine PEG-peptide while vortexing. The polyplexes were equilibrated at RT for 30 min prior to analysis of particle size (QELS) and zeta potential using a Brookhaven ZetaPlus (Brookhaven Instruments, Holtsville, N.Y.). The particle size diameter and zeta potential are reported as the mean and standard deviation of ten measurements.

[6] = tested on: gastrocnemius muscle of ICR male mice; experiment: intramuscle-electroporation dosing and bioluminescence imaging; assay type: in vivo; details: IM-EP
Procedure: Male ICR mice (Harlan), weighing 25-30 g were prepared for IM-EP dosing by anesthetization with an intraperitoneal dose of 200 μl of ketamine/xylazine (20 mg/ml and 2 mg/ml, respectively). The hamstring muscles were sheared and swabbed with 70% ethanol prior to administering a 50 μl dose over 10 sec in normal saline to both gastrocnemius muscles in 2 mice by a 1 ml monoject syringe (1 cc, 28 G×½). After dosing the BTX 2-Needle Array Electrode was inserted into the skin with the electrodes straddling the dosing site. Successive electronic stimulation was generated by the EMC BTX 830, Square-wave Pulse Generator (BTX, Harvard Apparatus) as the power source. At 1 min post-administration of the DNA dose, the pulse generator delivered six successive 100 V pulses over 20 msec with a 100 msec interval between pulses (31).
Luciferase reporter gene expression was quantified by bioluminescence imaging (BLI) at 2-14 days following IM-EP using an IVIS Imaging System 200 Series (Xenogen) (Wu, J. C., Sundaresan, G., Iyer, M., and Gambhir, S. S. (2001) Noninvasive optical imaging of firefly luciferase reporter gene expression in skeletal muscles of living mice. Molecular Therapy: the Journal of the American Society of Gene Therapy 4, 297-306). Mice were anesthetized by isofluorane (2% flow with oxygen) and dosed intramuscularly with 40 μL of 30 mg per ml D-Luciferin (GoldBio). Bioluminescent images were acquired 5 min post substrate administration and acquired for 1 min with a 24.6 cm field of view. The resultant grayscale images with a colormap overlay were analyzed using the Igor Pro 4.09 software (Livinglmage). Luciferase expression is reported as photons/sec/cm^2/steradian within a uniformly defined region of interest.

[7] = RBC hemolysis at pH 5.0, second value of the cell (pH 7.4:5.0), read-out: HL50 (μM) pH 5.0
[8] = RBC hemolysis at pH 7.4, first value of the cell (pH 7.4:5.0), read-out: HL50 (μM) pH 7.4

Compound | EC50 [1, 7] [µM] | EC50 [1, 8] [µM] | hemolytic activity when combined with pGL3 [1] | DNA band shift on agarose gel [3] | further results
(m)GWKKGIGAVLKVLTTGLPALISLIKRKRQQ [Mal-melittin] | 4.8 | 3.84 | maintained their hemolytic activity |  | 
Lys(Acr)-Arg-Lys(Acr)-Arg-Lys(Acr)-Arg-Lys(Acr)-Arg-Cys (K(Acr)RK(Acr)RK(Acr)RK(Acr)RC) [poly(Acr-Arg)4-Cys] | > 10 | > 10 |  |  | thiazole orange displacement, asymptote / equivalence point of fluorescence intensity [2]: approximately 0.4 nmols of peptide per μg of DNA; thiazole orange displacement, asymptote / equivalence point of fluorescence intensity ([2]; listed as (Acr-Arg)4-Cys): 0.35 nmols of peptide per μg of DNA
PEG-Cys-Trp-(Lys)5: PEGylated Cys-Trp-Lys5 without acridine, SEQ ID NO: 19 (C(PEG)WKKKKK; reading uncertain; also: PEG5000 Da maleimide on Cys, printed as PEG-Cys-Trp-(Lys)5) |  |  |  | unable to cause a band DNA shift | 
PEGylated-SS-(Acr-Arg)4: (Acr-Arg)4-Cys with Cys thiol reacted with 5 kDa PEG-OPSS, reducible disulfide linkage |  |  |  |  | BLI luciferase expression in liver at 24 hr [4]: approximately 10^7 photons/sec/cm^2/sr
PEG-Cys-Trp-(Lys(Acr))5: PEG5000 Da-maleimide on Cys of Cys-Trp-Lys5, Lys ε-amines conjugated with 6-(9-acridinylamino) hexanoic acid; SEQ ID NO: 5 (C(PEG 5000 Da maleimide)WK(6‑(9-acridinylamino)hexanoyl)K(6‑(9-acridinylamino)hexanoyl)K(6‑(9-acridinylamino)hexanoyl)K(6‑(9-acridinylamino)hexanoyl)K(6‑(9-acridinylamino)hexanoyl)) |  |  |  | complete retardation of DNA migration | zeta potential asymptote ([5]; at 1 nmol per μg of DNA): −5 mV; luciferase expression at day 2, fold decrease versus pGL3 ([6]; formulation 0.2 nmol per μg of DNA, 1 μg pGL3, mice): 100 fold; luciferase expression at day 2 compared with pGL3 ([6]; open polyplex 2 nmol per μg of DNA, 1 μg pGL3, mice): identical expression levels; luciferase expression at day 2, fold lower than pGL3 ([6]; open polyplex 4 nmol per μg of DNA, 1 μg pGL3, mice): approximately 10 fold; loss in expression across the 14 day sampling period ([6]; open polyplexes 4 nmol per μg of DNA, mice): 2-3 fold; decrease of expression over 14 days ([6]; open polyplexes 0.2 and 2 nmol per μg of DNA, mice): 10 fold
PEG-Cys-Trp-(Lys(Acr))4: PEG5000 Da-maleimide on Cys of Cys-Trp-Lys4, Lys ε-amines conjugated with 6-(9-acridinylamino) hexanoic acid; SEQ ID NO: 4 (C(PEG 5000 Da maleimide)WK(6‑(9-acridinylamino)hexanoyl)K(6‑(9-acridinylamino)hexanoyl)K(6‑(9-acridinylamino)hexanoyl)K(6‑(9-acridinylamino)hexanoyl)) |  |  |  | further retarded DNA migration | 
(CWKKGIGAVLKVLTTGLPALISLIKRKRQQ)2 [Dimeric-melittin] | 1.2 | 1 |  |  | 
CC[C@H](C)[C@H](NC(=O)CN)C(=O)NCC(=O)N[C@@H](C)C(=O)N[C@H](C(=O)N[C@@H](CC(C)C)C(=O)N[C@@H](CCCCN)C(=O)N[C@H](C(=O)N[C@@H](CC(C)C)C(=O)N[C@H](C(=O)N[C@H](C(=O)NCC(=O)N[C@@H](CC(C)C)C(=O)N1CCC[C@H]1C(=O)N[C@@H](C)C(=O)N[C@@H](CC(C)C)C(=O)N[C@H](C(=O)N[C@@H](CO)C(=O)N[C@@H](Cc1c[nH]c2ccccc12)C(=O)N[C@H](C(=O)N[C@@H](CCCCN)C(=O)N[C@@H](CCCNC(=N)N)C(=O)N[C@@H](CCCCN)C(=O)N[C@@H](CCCNC(=N)N)C(=O)N[C@@H](CCC(N)=O)C(=O)N[C@@H](CCC(N)=O)C(N)=O)[C@@H](C)CC)[C@@H](C)CC)[C@@H](C)O)[C@@H](C)O)C(C)C)C(C)C [Melittin, reference compound] | 2.3 | 0.9 | nearly unchanged |  | 
CWKKGIGAVLKVLTTGLPALISLIKRKRQQ [Cys-melittin] | 0.7 | 1 | maintained their hemolytic activity; also recorded: nearly unchanged |  | thiazole orange displacement, asymptote / equivalence point of fluorescence intensity [2]: approximately 0.5 nmols of peptide per μg of DNA
PEG-Cys-Trp-(Lys(Acr))3: PEG5000 Da-maleimide on Cys of Cys-Trp-Lys3, Lys ε-amines conjugated with 6-(9-acridinylamino) hexanoic acid; SEQ ID NO: 3 (C(PEG 5000 Da maleimide)WK(6‑(9-acridinylamino)hexanoyl)K(6‑(9-acridinylamino)hexanoyl)K(6‑(9-acridinylamino)hexanoyl)) |  |  |  | further retarded DNA migration | apparent particle diameter [5]: approximately 200 nm; apparent particle diameter ([5]; listed as PEG-Cys-(Lys(Acr))3): 200 nm; zeta potential over titration ([5]; titrating with 0.1 to 2 nmol per μg of DNA): −15 to −5 mV
